{
  "source": "patent US11872263B2",
  "about": "“AIMP1 protein fragment and hair growth-promoting composition containing same as active ingredient” (CUREBIO THERAPEUTICS, priority 2016, dated 2024)",
  "key": {"[1]": {"tested_on": "β-catenin target genes AXIN, CD44 and TCF7", "assay": "qRT-PCR of β-catenin target genes in CD34+ cells", "format": "cell-based, mouse", "settings": "100 nM, CD34+ cells cultured 8 hours", "protocol": "In order to confirm the induction of CD34+ hair follicle stem cell proliferation through β-catenin pathway, mRNA expression levels of β-catenin target genes AXIN, CD44 and TCF7 were confirmed by the following method. Specifically, each test substance was treated and CD34+ cells were cultured for 8 hours. Then, the cultured cells were collected, RNA was isolated using GeneJET RNA purification kit (Thermo Fisher, K0731), and cDNA was synthesized with the Maxima first strand cDNA synthesis kit (Thermo Fisher, K1642). qRT-PCR was performed using each of the gene-specific primers (TCF7: 5′-[…]-3′ (SEQ ID NO: 36) and 5′-[…]-3′ (SEQ ID NO: 37), AXIN2: 5′-CTCCTTGGAGGCAAGAGC-3′ (SEQ ID NO: 38) and 5′-GGCCACGCAGCACCGCTG-3′ (SEQ ID NO: 39), CD44: 5′-[…]-3′ (SEQ ID NO: 40) and 5′-GGAGTCTTCGCTTGGGGTA-3′ (SEQ ID NO: 41)), Maxima SYBR green/ROX qPCR master mix (Thermo Fisher, K0222) and 7500 Real-time PCR system (Applied Biosystems, 2720; condition: 40 cycles, 2 step (95° C. for 15 sec, and 54° C. for 60 sec). The expression level of each gene was calculated by the ΔΔCT method."}, "[2]": {"tested_on": "CD34+ hair follicle stem cells", "assay": "In vitro hair growth assay / BrdU proliferation assay with CD34+ hair follicle stem cells", "format": "cell-based, mouse", "protocol": "The hair of the dorsal skin of 7 weeks old male C57BL6 mice (purchased from Orient Bio Inc.) were cut with a clipper and skin tissue samples of the depilated dorsal region of the mice were collected. The collected skin tissue samples were immersed in medium using collagenase, DNase I, and hyaluronidase, and cells were isolated using Gentle MACSTM Dissociator (Miltenyi Biotec). After the cells were separated, the separated cells were incubated with a mouse CD34-Biotin antibody (Miltenyi Biotec). Cells and antibody solutions were incubated with streptavidin microbeads (Miltenyi Biotec) and then separated using LS column (Miltenyi Biotec). The separated cells were cultured in DMEM medium containing 10% FBS, 1% penicillin/streptomycin solution in humidified air of 95% 02 and 5% CO2 at 37° C.\nCell proliferation can be confirmed using the BrdU cell proliferation assay kit (Cell Signaling). Proliferation assays were performed using protocols presented by […]. Briefly, the cells were incubated with BrdU for 2 h. The primary BrdU detection antibody was incubated for 1 hour and the secondary anti-mouse IgG, HRP-conjugate antibody was incubated for 30 minutes.\nA hair growth in vitro assay was performed using the Cyquant Assay (Thermo Fisher). […]"}, "[3]": {"tested_on": "hair follicle region of skin tissue", "assay": "Histological analysis (IHC for BrdU, β-catenin, Cytokeratin 15) of skin at Day 6 after depilation", "format": "in vivo, mouse", "settings": "100 nM", "protocol": "A skin sample of 7 weeks old male C57BL6 mice (purchased from Orient Bio Inc.) was collected and placed in a paraffin block. IHC (Immunohistochemistry) was performed using Cytokeratin 15 antibody (Abcam), BrdU antibody (Novusbio), and β-catenin antibody.\nFor reference, β-catenin is a hair follicle signaling marker, Cytokeratin 15 is a hair follicle stem cell marker, and BrdU is a cell proliferation marker.\nβ-catenin is a very important protein for hair growth and a very important factor in follicular stem cell proliferation playing a role as a signaling marker for hair follicle cells. In addition, Cytokeratin 15 acts as a biomarker of hair follicle stem cells, and BrdU is known to be a factor that plays a role as a cell growth marker."}, "[4]": {"tested_on": "hair follicles of anagen phase in dorsal skin", "assay": "H&E staining of dorsal skin sections: anagen hair follicle count and dermis thickness", "format": "in vivo, mouse", "settings": "H&E stained dorsal skin sections, Day 13 after depilation, 100 nM", "protocol": "Skin samples of 7 weeks old male C57BL6 mice (purchased from Orient Bio Inc.) were collected and placed in a cryomold using an OCT compound (Tissue-Tek) and stored at −80° C. in a freezer. After tissue sections were prepared with Microm HM 525 (Thermo Scientific), the tissue sections prepared in the slide glass were fixed with 4% paraformaldehyde for 10 minutes, washed twice with PBS for 5 minutes, and then stained with 50 μl of hematoxylin solution (Sigma Aldrich) for 6 minutes and washed with water and PBS for 5 minutes. Then, stained with eosin (Sigma Aldrich), briefly washed with water and washed with PBS for 5 min, then briefly twice with 95% ethanol and 100% ethanol, respectively. After treatment with xylene (Duksan) twice for 2 min, the stained tissue sections were covered with cover slides and fixed.\nIn addition, dorsal skin samples of the mice were collected and placed in a cryomold using an OCT compound (Tissue-Tek) and stored at −80° C. in a freezer. […] The number of hair follicles of anagen phase (growth phase) was counted and compared quantitatively in dorsal skin sections of each group stained with hematoxylin and eosin (H & E)."}, "[5]": {"tested_on": "hair follicles in skin tissue of C3H/HeJ mice", "assay": "H&E histology of skin tissue of C3H/HeJ alopecia areata mice", "format": "in vivo, mouse", "settings": "100 nM topical", "source_text": "Meanwhile, in the images of the skin tissue of the mouse in FIG. 7, the skin tissue at the alopecia area and the area without alopecia around it was collected, fixed in Fekete's acid alcohol formalin and analyzed for H&E staining.\nThese are main characteristics used for diagnosing alopecia areata. And follicular dystrophy is a phenomenon that occurs frequently in alopecia areata, which means that hair follicles are twisted and deformed or have weak or disrupted hair shaft."}, "[6]": {"tested_on": "dorsal hair of depilated C57BL6 mice", "assay": "In vivo hair regrowth after depilation of dorsal skin of mice", "design": "species or system mouse", "settings": "13 days after depilation, 100 nM polypeptide, 80 μl topical once a day", "protocol": "(§1) The hair of the dorsal skin of mice (7 weeks old male C57BL6, purchased from Orient Bio Inc.) was cut out with a clipper, and hair removal cream (Niclean, Ildong Pharmaceutical) was applied. The depilated area was about 2×2.5 cm. Mice were treated with 20% glycerol/PBS (control group), 3% Minoxidil (MNX, 140 mM), FGF7 (100 nM) or Neo-Pep of the present invention (polypeptide of SEQ ID NO: 1, 100 nM), respectively, once a day in 80 μl using brush, for 13 days (n=6 per group).\nas §1, with “Specifically, the hair” for “The hair”, “of a mouse” for “of mice”, “group). For comparative observation, the dorsal skin of the mouse was photographed before and after the beginning of the test.” for “group).”"}, "[7]": {"tested_on": "C3H/HeJ mice having alopecia universalis", "assay": "Hair growth in C3H/HeJ mice with skin graft-induced alopecia areata", "format": "in vivo, mouse", "settings": "100 μl of 100 nM topical once daily for 14 weeks", "source_text": "In order to confirm the effect of the polypeptide of the present invention on the human hair growth cycle, C3H/HeJ mouse (Jackson Laboratory, USA) was used as an animal model reflecting the pathological state of human alopecia areata. The advantage of using the C3H/HeJ mouse is that when full thickness skin graft is applied to an aged mouse having alopecia areata from young age, patchy alopecia develops within 8 to 10 weeks, and after 20 weeks, alopecia extends to the whole body skin and result in a chronic state of alopecia universalis.\nIn this test, C3H/HeJ female mice having alopecia universalis that was induced 25 weeks after skin transplantation as described above were used. Without any pretreatment such as shaving or depilation, control group (Control-treated mice, 100 μl of 20% glycerol/PBS) and Neo-Pep polypeptide treated group (Peptide-treated mice, 100 μl of 100 nM Neo-Pep polypeptide (SEQ ID NO: 1) in 20% glycerol/PBS) were treated with each test material topically around the alopecia region using brush, once daily, for 14 weeks. Control group and Neo-Pep treated group consisted of 4 mice, respectively.\nPhotographs were taken every 2 weeks from the beginning of the experiment."}},
  "data": [
    {"sequence": "AVLKRLEQKGAEADQIIEYLKQQVSLLKEKAILQATLREEK (Homo sapiens Neo-Pep polypeptide; AIMP1-(6-46))", "values": [
      {"measurement": "mRNA expression level of AXIN, CD44 and TCF7 compared to the control group", "setting": "[1]", "value": 5, "unit": "fold"},
      {"measurement": "proliferation of CD34+ hair follicle stem cells", "setting": "[2]; 1 nM, 10 nM, 100 nM and 1000 nM", "value": "induced proliferation of CD34+ hair follicle stem cells in a dose-dependent manner"},
      {"measurement": "inducing proliferation of CD34+ hair follicle stem cells (relative cell number)", "setting": "[2]; each peptide 100 nM, 24 hours", "value": "induced proliferation"},
      {"measurement": "start of anagen phase compared with control (BrdU, β-catenin, Cytokeratin 15)", "setting": "[3]", "value": "starts earlier"},
      {"measurement": "dermis thickness compared with control", "setting": "[4]", "value": "much thicker"},
      {"measurement": "number of hair follicles of anagen phase compared with control", "setting": "[4]", "value": "more than twice as much"},
      {"measurement": "development of inflammation and deformed hair shaft compared to the control group", "setting": "[5]", "value": "significantly lower"},
      {"measurement": "dorsal hair growth compared with control group", "setting": "[6]", "value": "grew much more"},
      {"measurement": "time at which hair began to grow again", "setting": "[7]", "value": 11, "unit": "weeks"},
      {"measurement": "mice with mild to moderate hair growth", "setting": "[7]; 4 mice per group", "value": "3 out of 4"}
    ]}
  ]
}
